Source: ChEMBL document CHEMBL5579854, “Targeting Relevant HDACs to Support the Survival of Cone Photoreceptors in Inherited Retinal Diseases: Identification of a Potent Pharmacological Tool with In Vitro and In Vivo Efficacy” (J Med Chem, 2024)
Values after ≈ are worked out from the molar mass of the structure shown. Active and inactive are the calls of the source. The calls are words filed in the database; no cut-off is given here.

How the values were obtained:
[1] = tested on: 661W; assay: Cytoprotective effect against H2O2-induced oxidative stress in mouse 661W cells assessed as increase in acetylated alpha-tubulin level at 10 to 30 uM incubated for 24 hrs followed by H2O2 treatment for 3 hrs by immunofluorescence analysis; format: functional, cell-based; conditions: dose 10-30 µM, time 27.0 hrs
[2] = Lipophilicity, logP of compound; format: physicochemical; conditions: octanol/water
[3] = Solubility of compound; format: physicochemical
[4] = Stability of compound at pH 7.4 measured after 24 hrs; format: physicochemical; conditions: buffer, read-out: Stability
[5] = Metabolic stability in mouse liver microsomes assessed as compound recovery at 10 uM incubated for 60 mins in presence of NADPH by HPLC analysis; format: ADME, Microsome; conditions: read-out: Stability
[6] = Metabolic stability in human liver microsomes assessed as compound recovery at 10 uM incubated for 60 mins in presence of NADPH by HPLC analysis; format: ADME, Microsome; conditions: read-out: Stability
[7] = tested on: Cytochrome P450; assay: Inhibition of CYP in human liver microsomes using ECOD at 1 to 50 uM measured upto 30 mins by fluorescence based assay; format: ADME, Microsome; conditions: 0.5 h, dose 1-50 µM
[8] = Inhibition of CYP in mouse liver microsomes using ECOD at 1 to 50 uM measured upto 30 mins by fluorescence based assay; format: ADME, Microsome; conditions: 0.5 h, dose 1-50 µM
[9] = Inhibition of CYP1A in mouse liver microsomes using ECOD at 1 to 50 uM measured upto 30 mins by fluorescence based assay; format: ADME, Microsome; conditions: 0.5 h, dose 1-50 µM
[10] = Toxicity in Langendorff-perfused Wistar rat heart assessed as effect on chronotropic activity at 0.1 to 30 uM; format: tissue-based; conditions: dose 0.1-30 µM
[11] = Toxicity in Langendorff-perfused Wistar rat heart assessed as effect on QTc prolongation at 0.1 to 30 uM by ECG analysis; format: tissue-based; conditions: dose 0.1-30 µM
[12] = tested on: ARPE-19; assay: Cytotoxicity against human ARPE-19 cells assessed as cell viability at 1 uM incubated for 24 hrs by MTT assay; format: toxicity, cell-based; conditions: arpe-19, 24 h
[13] = tested on: ARPE-19; assay: Cytoprotective effect against H2O2-induced oxidative stress in human ARPE-19 cells assessed as increase in cell viability at low concentration incubated for 24 hrs followed by H2O2 treatment by MTT assay; format: functional, cell-based
[14] = tested on: 661W; assay: Cytoprotective effect against H2O2-induced oxidative stress in mouse 661W cells assessed as increase in acetylated histone H3 level at 5 uM incubated for 24 hrs followed by H2O2 treatment for 3 hrs by Western blot analysis; format: functional, cell-based; conditions: time 27.0 hrs
[15] = tested on: 661W; assay: Cytoprotective effect against H2O2-induced oxidative stress in mouse 661W cells assessed as increase in acetylated alpha-tubulin level at 30 uM incubated for 24 hrs followed by H2O2 treatment for 3 hrs by Western blot analysis; format: functional, cell-based; conditions: time 27.0 hrs
[16] = Toxicity in zebrafish larval dye model harboring atp6v0e1/ucd6 assessed as visual impairment at 20 to 100 uM treated for 2 days; design: species or system Danio rerio; conditions: in vivo, 48 h, dose 20-100 µM, time 2 day
[17] = Toxicity in zebrafish larval dye model harboring atp6v0e1/ucd6 assessed as morphological abnormalities at 20 to 100 uM treated for 2 days; design: species or system Danio rerio; conditions: in vivo, 48 h, dose 20-100 µM, time 2 day
[18] = Toxicity in zebrafish larval dye model harboring atp6v0e1/ucd6 assessed as maximum tolerated dose treated for 2 days; design: species or system Danio rerio; conditions: in vivo, 48 h, time 2 day
[19] = species on record: Danio rerio; assay: Rescue of vision in zebrafish larval dye model harboring atp6v0e1/ucd6 at 100 uM treated for 2 days by OKR analysis; format: functional, organism-based; conditions: time 2.0 day
[20] = species on record: Danio rerio; assay: Rescue of visual acuity in zebrafish larval dye model harboring atp6v0e1/ucd6 at 100 uM treated for 2 days by OKR analysis; format: functional, organism-based; conditions: time 2.0 day
[21] = Toxicity in zebrafish larval dye model harboring atp6v0e1/ucd6 assessed as morphological change in eye at 80 to 100 uM treated for 2 days by toluidine blue staining based analysis; format: tissue-based, Danio rerio; conditions: in vivo, 48 h, dose 80-100 µM, time 2 day
[22] = tested on: Cone cell; assay: Rescue of cone cell morphology in eyes of C57BL/6J mouse model harboring rd10 mutant at 30 uM, IVT administered bilaterally measured after 5 days by IHC analysis; format: functional, tissue-based; conditions: Eye, time 5.0 day
[23] = tested on: Cone cell; assay: Induction of cone cell survival in eyes of C57BL/6J mouse model harboring rd10 mutant at 5 to 30 uM, IVT administered bilaterally measured after 5 days by IHC analysis; format: functional, tissue-based; conditions: Eye, dose 5-30 µM, time 5.0 day
[24] = tested on: Cone cell; assay: Rescue of cone morphology with numerous longer outer segments in eyes of C57BL/6J mouse model harboring rd10 mutant at 5 to 30 uM, IVT administered bilaterally measured after 5 days by fluorescence microscopy; format: functional, tissue-based; conditions: Eye, dose 5-30 µM, time 5.0 day
[25] = Induction of cone cell survival rate in eyes of C57BL/6J mouse model harboring rd10 mutant at 30 uM, IVT administered bilaterally measured after 5 days by fluorescence microscopy relative to control; format: functional, Eye; conditions: time 5 day
[26] = Induction of cone cell survival rate in eyes of C57BL/6J mouse model harboring rd10 mutant at 5 uM, IVT administered bilaterally measured after 5 days by fluorescence microscopy relative to control; format: functional, Eye; conditions: time 5 day
[27] = tested on: Mus musculus; assay: Rescue of b-wave amplitude in photopic stimulation in eyes of C57BL/6J mouse model harboring rd10 mutant at 5 to 30 uM, IVT administered bilaterally measured after 5 days by ERG analysis; format: functional, tissue-based; conditions: Eye, dose 5-30 µM, time 5.0 day
[28] = tested on: Mus musculus; assay: Rescue of scotopic response in eyes of C57BL/6J mouse model harboring rd10 mutant at 5 to 30 uM, IVT administered bilaterally measured after 5 days by ERG analysis; format: functional, tissue-based; conditions: Eye, dose 5-30 µM, time 5.0 day
[29] = tested on: Mus musculus; assay: Upregulation of […] mRNA level in eyes of C57BL/6J mouse model harboring rd10 mutant at 5 to 30 uM, IVT administered bilaterally measured after 5 days by RT-PCR analysis; format: functional, tissue-based; conditions: Eye, dose 5-30 µM, time 5.0 day
[30] = tested on: Mus musculus; assay: Upregulation of GNAT1 mRNA level in eyes of C57BL/6J mouse model harboring rd10 mutant at 5 to 30 uM, IVT administered bilaterally measured after 5 days by RT-PCR analysis; format: functional, tissue-based; conditions: Eye, dose 5-30 µM, time 5.0 day
[31] = tested on: Mus musculus; assay: Upregulation of ARR3 mRNA level in eyes of C57BL/6J mouse model harboring rd10 mutant at 5 to 30 uM, IVT administered bilaterally measured after 5 days by RT-PCR analysis; format: functional, tissue-based; conditions: Eye, dose 5-30 µM, time 5.0 day
[32] = tested on: Mus musculus; assay: Upregulation of GNAT2 mRNA level in eyes of C57BL/6J mouse model harboring rd10 mutant at 5 to 30 uM, IVT administered bilaterally measured after 5 days by RT-PCR analysis; format: functional, tissue-based; conditions: Eye, dose 5-30 µM, time 5.0 day
[33] = tested on: Mus musculus; assay: Upregulation of Nr3c1 mRNA level in eyes of C57BL/6J mouse model harboring rd10 mutant at 5 to 30 uM, IVT administered bilaterally measured after 5 days by RT-PCR analysis; format: functional, tissue-based; conditions: Eye, dose 5-30 µM, time 5.0 day
[34] = tested on: Mus musculus; assay: Upregulation of Hsp90b1 mRNA level in eyes of C57BL/6J mouse model harboring rd10 mutant at 5 to 30 uM, IVT administered bilaterally measured after 5 days by RT-PCR analysis; format: functional, tissue-based; conditions: Eye, dose 5-30 µM, time 5.0 day
[35] = tested on: Mus musculus; assay: Downregulation of Rps6kl1 mRNA level in eyes of C57BL/6J mouse model harboring rd10 mutant at 5 to 30 uM, IVT administered bilaterally measured after 5 days by RT-PCR analysis; format: functional, tissue-based; conditions: Eye, dose 5-30 µM, time 5.0 day
[36] = tested on: Mus musculus; assay: Inhibition of discontinuities in tight junction pattern in eyes of C57BL/6J mouse model harboring rd10 mutant at 30 uM, IVT administered bilaterally measured after 5 days by ZO-1 staining based analysis; format: functional, tissue-based; conditions: Eye, time 5.0 day

For `O=C(NO)c1ccc(CNC(=O)N2CCc3c(c4ccccc4n3Cc3ccccc3)C2)cc1`, the Activity [1] was “Active”, the logP [2] was 2.94 and the solubility [3] was 309 µM (≈ 140 µg/mL). For the same compound, the remaining at 24 h [4] was over 99%, the remaining at 1 h, 10 µM [5] was 87% and the remaining at 1 h, 10 µM [6] was 84%. The “inhibition (INH)” value [7] was “Not Active”, the “inhibition (INH)” value [8] was “Not Active” and the “inhibition (INH)” value [9] was “Not Active”. For the same compound, the Activity [10] was “Non-Toxic”, the Activity [11] was “Non-Toxic” and the Activity [12] was “Non-Toxic”. The Activity [13] was “Active”, the Activity [14] was “Active” and the Activity [15] was “Active”. The Activity [16] was “Non-Toxic”, the Activity [17] was “Non-Toxic” and the MTD [18] was 100 µM. For the same compound, the Activity [19] was “Active”, the Activity [20] was “inactive” and the Activity [21] was “Non-Toxic”. The Activity [22] was “Active”, the Activity [23] was “Active” and the Activity [24] was “Active”. For the same compound, the Activity [25] was 17%, the Activity [26] was 4% and the Activity [27] was “Active”. The Activity [28] was “Active”, the Activity [29] was “Active” and the Activity [30] was “Active”. For the same compound, the Activity [31] was “Active”, the Activity [32] was “Active” and the Activity [33] was “Active”. For the same compound, the Activity [34] was “Active”, the Activity [35] was “Active” and the inhibition [36] was “Active”.
